# From PMC8621570, “Mechanistic Studies of Antibiotic Adjuvants Reducing Kidney’s Bacterial Loads upon Systemic Monotherapy” (Pharmaceutics, 2021)
# Tests used:
# [1] = Peptide self-assembly (critical aggregation concentration) by static light scattering; type: physicochemical; settings: light scattering in PBS
# Description: (§1) Peptide self-assembly was determined by static light scattering measurements as described. Hemolysis was determined by measuring hemoglobin leakage from washed human RBCs, as described. Minimal inhibitory concentration (MIC) was determined using the microdilution assay, as described. Bactericidal kinetics were determined by mixing bacteria with rifampin, OAC, or their combinations, as described. Data were obtained from three independent assays performed in duplicate.
# [2] = system: Acinetobacter baumannii 19606; assay: Sensitization to rifampin, checkerboard method; type: cell-based; settings: adjuvant at 8 µg/mL (10 µM for C14(ω5)OOc10O), Ab 19606, LB
# Description: (§2) Bacterial sensitization: Sensitization to antibiotics was determined using the checkerboard method in presence of sub-MIC OAC (2.5, 5, and 10 μM), as described. The synergistic effect of the combinations was expressed in terms of the Sensitization Factor (SF), where SF = (MIC antibiotic alone)/(MIC antibiotic upon combination). Data were obtained from three independent assays performed in duplicate.
# (§3) Figure 4 Hydrophobicity dependence of antibiotics potentiation by lipopeptide analogs. Sensitization of GNB to rifampin and erythromycin (upper and lower panel, respectively) was assessed by MIC experiments performed in LB medium, in presence or absence of an OAC analog whose A2 position was gradually shortened (from c10 to c6). Pseudomonas aeruginosa 27853 (Pa, blue), Klebsiella pneumoniae 1287 (Kp, green), Escherichia coli 25922 (Ec, red), and Acinetobacter baumannii 19606 (Ab, black).
# [3] = system: Klebsiella pneumoniae; assay: Sensitization to rifampin, checkerboard method; type: cell-based; settings: adjuvant at 8 µg/mL (10 µM for C14(ω5)OOc10O), Kp, LB
# Description: as §2, §3
# [4] = system: Pseudomonas aeruginosa 27853; assay: Sensitization to rifampin, checkerboard method; type: cell-based; settings: adjuvant at 8 µg/mL (10 µM for C14(ω5)OOc10O), Pa 27853, LB
# Description: as §2, §3
# [5] = system: Escherichia coli 25922; assay: Sensitization to rifampin, checkerboard method; type: cell-based; settings: adjuvant at 8 µg/mL (10 µM for C14(ω5)OOc10O), Ec 25922, LB
# Description: as §2, §3
# [6] = Organ bio-distribution; type: in vivo, mouse; settings: 3 h post single S.C 12.5 mg/kg, ICR mice, organ homogenates, LC-MS
# Description: C14(ω5)OOc10O was subjected to preliminary pharmacokinetics (PK) analysis to determine its plasma concentrations or organ bio-distribution following S.C administration to non-neutropenic pathogen-free mice. OAC quantification was performed by LC-MS as follows: blood was drawn at various time intervals and plasma was separated by centrifugation (5000 RCF, 10 min). Organs were excised and homogenized. Then, OAC was extracted from both plasma and organ homogenates by incubation with 50% acetonitrile: 50% methanol at room temperature with shaking for 30 min, and subsequent centrifugation (5000 RCF, 10 min). Supernatants were diluted two-fold in distilled water and analyzed by LC-MS (ULC ultimate 3000 DIONEX, MS BRUKER Maxis impact). Quantification was based on standard calibration curves, prepared by spiking fresh mice plasma (for PK) or water (for organ bio-distribution) with various amounts of the tested OAC (final concentrations from 2.5 to 50 µg/mL) and subjected to an identical procedure as described above.
# Figure 10 Systemic efficacy studies using mouse infection models. (a,b) Data points represent colony forming unit (CFU) counts harvested from infected mice (8 and 10 mice per group, respectively). […]
# [7] = system: E. coli 25922; type: cell-based, Escherichia coli; settings: 25922, 24 h
# Description: Sensitization to plasma components was assessed by mixing bacteria with serial two-fold OAC dilutions in 80% human plasma (Israel Blood Bank) or plasma from the specified species (Technion preclinical research authority or VetSource), as described. Data were obtained from three independent experiments.
# Figure 3 Animal plasma antibacterial activities against E. coli 25922. (a) Dose-dependent reduction of colony forming units (CFU) as determined 24 h after exposure to C14(ω5)OOc10O in human plasma (80% final plasma concentration in PBS). Values represent the mean ± SD obtained from three individual plasma donors (mean inoculum was 1.6 ± 0.8 × 10^6 CFU/mL). (b) Time-kill kinetics determined upon E. coli exposure to 0, 2.5, 5, and 10 µM C14(ω5)OOc10O (from top to bottom, respectively). Values represent the mean ± SD obtained from two individual plasma samples, each subjected to two independent assays. Panels (c–f), respectively, show the OAC’s concentration-dependent activities in plasma samples obtained from pig, cat, sheep, and dog. The three dashed horizontal lines respectively represent the average CFU count of the vehicle control (upper line), the inoculum (middle line), and the limit of detection (lower line), i.e., log10 50 CFU/mL = 1.69. Green stars (*) denote lack of detectable CFU.
# [8] = system: 12 GNB strains; type: cell-based; settings: OD measurements, mean of 12 GNB strains
# Description: Bacteria:Escherichia coli strains: 25922 and 35218 (ATCC, Manassas, VA, USA), 14182 (clinical isolate), Ag100 and Ag100A [34] (ΔacrAB) are two K-12 isogenic mutantsand the engineered mutant ML-35p. Additional ESKAPE species tested: Klebsiella pneumoniae strains 1287 and 224 (clinical isolates), Acinetobacter baumannii ATCC strain 19606, Pseudomonas aeruginosa ATCC strains 9027 and 27853. Bacteria were grown in Luria–Bertani (LB) broth (0.5% NaCl, 0.5% yeast extract, 1% tryptone, pH = 7), except for E. coli ML-35p that was grown in tryptic-soy broth.
# as §1
compound,measurement,setting,value
CCCCC=CCCCCCCCC(=O)N[C@@H](CCCN)C(=O)N[C@@H](CCCN)C(=O)NCCCCCCCCCC(=O)N[C@@H](CCCN)C(N)=O [C14(ω5)OOc10O],"CAC, critical aggregation concentration",[1],>100 µM
same,Sensitization factor (rifampin MIC alone)/(rifampin MIC in combination),[2],4000
same,Sensitization factor (rifampin MIC alone)/(rifampin MIC in combination),[3],"64,000"
same,Sensitization factor (rifampin MIC alone)/(rifampin MIC in combination),[4],"32,000"
same,Sensitization factor (rifampin MIC alone)/(rifampin MIC in combination),[5],"32,000"
same,"Concentration in liver and kidneys relative to lymph nodes, thighs, bladder, brain or spleen",[6],at least 3 times
same,"MIC, cat plasma",[7],≥ 20 µM
same,"MIC, dog plasma",[7],≥ 20 µM
same,"MIC, human plasma",[7],2.5 to 5 µM
same,"MIC, LB medium",[8],> 50 µM
